Results from PubChem BioAssay (NCI).
Where “and” joins values, the source holds several entries; their conditions need not be identical. Equal entries are not always repeated.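 How tested: cells in 96-well plates exposed to compound for 48 hours at five concentrations. GI50 marks 50% less growth. TGI denotes the concentration required for complete inhibition of growth.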

Experiments:
Assay in all cases: NCI tumour cell line growth inhibition, 48 h
SF-268 CNS = system: SF-268 CNS
T-47D breast = system: T-47D breast
DU-145 prostate = system: DU-145 prostate
A549 NSCLC = system: A549 NSCLC
KM12 colon = system: KM12 colon
RXF 393 renal = system: RXF 393 renal
NCI/ADR-RES ovarian = system: NCI/ADR-RES ovarian
OVCAR-5 ovarian = system: OVCAR-5 ovarian
HCT-15 colon = system: HCT-15 colon
HT29 colon = system: HT29 colon

Row | Compound | GI50 (SF-268 CNS) | TGI (SF-268 CNS) | GI50 (T-47D breast) | TGI (T-47D breast) | GI50 (DU-145 prostate) | TGI (DU-145 prostate) | GI50 (A549 NSCLC) | TGI (A549 NSCLC) | GI50 (KM12 colon) | TGI (KM12 colon) | GI50 (RXF 393 renal) | TGI (RXF 393 renal) | GI50 (NCI/ADR-RES ovarian) | TGI (NCI/ADR-RES ovarian) | GI50 (OVCAR-5 ovarian) | TGI (OVCAR-5 ovarian) | GI50 (HCT-15 colon) | TGI (HCT-15 colon) | GI50 (HT29 colon) | TGI (HT29 colon)
1 | COc1cccc(-c2nn(-c3ccccc3)cc2-c2ccnc(NCCCNC(=O)c3cccc(C(F)(F)F)c3)c2)c1 | 9.51 µM | 87.8 µM | 2.33 µM | 8.4 µM | 8.72 µM | 66.3 µM | 4.07 µM | 16.2 µM | 3.64 µM | 19.8 µM | 2.2 µM | 7.52 µM | 3.54 µM | 16.8 µM | 11.3 µM | 48.7 µM | 3.4 µM | 15.6 µM | 3.61 µM | 13.6 µM
2 | COc1cccc(/C=C/c2nc3c(cnn3-c3ccccc3)c(=O)[nH]2)c1 | > 55.6 µM | > 100 µM |  | > 100 µM | > 100 µM | > 100 µM | > 39.6 µM | > 100 µM | 25.5 µM | > 100 µM | 17.3 µM | 67.9 µM | > 33.7 µM | > 100 µM | > 100 µM | > 100 µM | > 100 µM | > 100 µM | > 59 µM | > 100 µM
3 | O=C(CSCC(=O)N/N=C/c1ccccc1O)N/N=C\c1ccccc1O | 1.2 µM | > 100 µM | 2.36 µM | > 100 µM | 1.92 µM | > 100 µM | 3.2 µM | > 100 µM | 2.42 µM | > 100 µM | 2.46 µM | > 100 µM | 2.87 µM | > 100 µM | 5.11 µM | > 100 µM | 0.52 µM | > 100 µM | 5.64 µM | > 100 µM
4 | CCOC(=O)Nc1nc2ccccc2[nH]1 | > 100 µM | > 100 µM | 5.76 µM and 4.62 µM | > 100 µM | 8.58 µM and 4.18 µM | > 100 µM | 7.08 µM and 9.89 µM | > 100 µM | 5.16 µM and 2.96 µM | > 100 µM | 3.89 µM | 43.6 µM | 3.55 µM and 3.47 µM | 35.3 µM and > 25.9 µM | 15.8 µM and > 26.1 µM | > 100 µM | 3.89 µM and 4.14 µM | > 100 µM | 3.96 µM and 3.99 µM | > 100 µM
5 | CCC1C(C)C=NN1c1nc(N)nc(C(C#N)=Nc2ccc(N(C)C)cc2)n1 (centres undefined) | 10.6 µM | 23.2 µM | 23.5 µM | > 50 µM | 9.32 µM | 17.4 µM | 33.9 µM | > 50 µM | 9.85 µM | 18.6 µM | 10.3 µM | 24 µM | 9.88 µM | 22 µM | 10.2 µM | 26.6 µM | 15.6 µM | > 50 µM | 16.5 µM | > 50 µM
6 | O=C(Nc1cccc(-n2cc(-c3ccncc3)c(-c3ccc(O)c(Cl)c3)n2)c1)c1ccc2c(c1)OCCO2 | > 100 µM | > 100 µM | 3.44 µM | > 100 µM | > 100 µM | > 100 µM | 5.85 µM | > 100 µM | 4.83 µM | > 100 µM | 3.02 µM | > 100 µM | 5.7 µM | > 100 µM | > 100 µM | > 100 µM | 3.7 µM | > 100 µM | 7.03 µM | > 100 µM
